Patent US20050209278A1, “Piperidinyl- and piperazinyl-sulfonylmethyl hydroxamic acids and their use as protease inhibitors” (priority 2002, published 2005)
Like-named read-outs stand apart in the source and are kept apart here.

How the values were obtained:
[1] = target: T1, MMP-13 (Homo sapiens, UniProt P45452); assay: In vitro MMP inhibition, Ki determination (fluorogenic substrate II); type: biochemical; settings: read-out: MMP-13 Ki
T1 construct: made in house; host or cells: baculovirus / insect cells
Outline: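 Room-temperature, 1 h incubation of APMA-activated recombinant human MMP-13 with 4 μM quenched substrate II (cleaved at Gly-Leu) in pH 7.5 Tris/NaCl/CaCl2 buffer. Inhibition appears as a slowed rise in 330/420 nm fluorescence. Single low enzyme and substrate levels were used for Ki.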

[2] = target: T2, MMP-2 (Homo sapiens, UniProt P08253); assay: as above; type: biochemical; settings: read-out: MMP-2 Ki
T2 construct: made in house; host or cells: MMP-2-transfected p2AHT2 cells
T2 sequence (P08253 110-660): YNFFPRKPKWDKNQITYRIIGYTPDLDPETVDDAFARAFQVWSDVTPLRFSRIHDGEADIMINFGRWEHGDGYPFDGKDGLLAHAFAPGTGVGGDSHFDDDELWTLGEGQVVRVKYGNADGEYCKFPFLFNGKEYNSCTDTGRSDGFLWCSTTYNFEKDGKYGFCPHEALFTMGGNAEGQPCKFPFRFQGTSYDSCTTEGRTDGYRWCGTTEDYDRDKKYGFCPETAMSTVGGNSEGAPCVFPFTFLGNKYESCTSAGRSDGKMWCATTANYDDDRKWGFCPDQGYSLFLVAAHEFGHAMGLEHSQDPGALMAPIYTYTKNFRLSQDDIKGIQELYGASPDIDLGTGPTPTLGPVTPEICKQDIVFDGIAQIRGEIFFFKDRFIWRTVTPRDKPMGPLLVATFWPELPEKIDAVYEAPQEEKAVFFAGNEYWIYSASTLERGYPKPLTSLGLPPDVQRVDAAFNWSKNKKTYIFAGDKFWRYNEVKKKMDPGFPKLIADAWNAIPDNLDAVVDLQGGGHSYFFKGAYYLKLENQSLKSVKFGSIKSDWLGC

| Structure (SMILES) | Ki ([1]; value not in parenthesis) | Ki ([2]; value not in parenthesis) | Ki ([1]; value outside parentheses) | Ki ([2]; value outside parentheses) |
| --- | --- | --- | --- | --- |
| CCCCc1ccc(C2CCN(S(=O)(=O)C3(C(=O)NO)CCN(CCOC)CC3)CC2)s1 [Example 55] | 3940 pM | 2200 pM | – | – |
| O=C(NO)C1(S(=O)(=O)N2CCN(c3ccc(COCC(F)(F)C(F)F)cc3)CC2)CCOCC1 [Example 71] | 790 pM | 2350 pM | – | – |
| O=C(NO)C1(S(=O)(=O)N2CCN(c3ccc(COCC(F)(F)F)cc3)CC2)CCOCC1 [Example 72] | 850 pM | 2440 pM | – | – |
| O=C(NO)C1(S(=O)(=O)N2CCN(c3ccc(OC4CCC4)c(F)c3)CC2)CCOCC1 [Example 73] | 9780 pM | 2200 pM | – | – |
| O=C(NO)C1(S(=O)(=O)N2CCN(c3ccc(OCc4ccccc4)cn3)CC2)CCOCC1 [Example 74] | 60 pM | 500 pM | – | – |
| O=C(NO)C1(S(=O)(=O)N2CCN(c3ccc(-c4ccccc4)cc3)CC2)CCOCC1 [Example 76] | 400 pM | 190 pM | – | – |
| O=C(NO)C1(S(=O)(=O)N2CCN(c3ccc(CCC(F)(F)F)cc3)CC2)CCOCC1 [Example 77] | 840 pM | 380 pM | – | – |
| CCN1CCC(C(=O)NO)(S(=O)(=O)N2CCN(c3ccc(OCCCC(F)(F)F)cc3)CC2)CC1 [Example 78] | 430 pM | 2560 pM | – | – |
| CC(C)COc1ccc(N2CCN(S(=O)(=O)C3(C(=O)NO)CCOCC3)CC2)cc1Cl [Example 79] | 6620 pM | 10100 pM | – | – |
| O=C(NO)C1(S(=O)(=O)N2CCN(c3ccc(OCCCC(F)(F)F)cc3F)CC2)CCOCC1 [Example 81] | 261 pM | 407 pM | – | – |
| O=C(NO)C1(S(=O)(=O)N2CCN(c3cccc(C(F)(F)F)c3)CC2)CCOCC1 [Example 82] | 7490 pM | 8740 pM | – | – |
| O=C(NO)C1(S(=O)(=O)N2CCN(c3ccc(OCCCC(F)(F)F)cn3)CC2)CCOCC1 [Example 83] | 48 pM | 251 pM | – | – |
| CCCCOc1ccc(N2CCN(S(=O)(=O)C3(C(=O)NO)CCN(C(C)(C)C)CC3)CC2)c(F)c1 [Example 84] | 1910 pM | 7530 pM | – | – |
| CCCCOc1ccc(N2CCN(S(=O)(=O)C3(C(=O)NO)Cc4ccccc4C3)CC2)nc1 [Example 85] | 250 pM | 640 pM | – | – |
| COCCN1CCC(C(=O)NO)(S(=O)(=O)N2CCN(c3ccc(OCCCCF)cc3)CC2)CC1 [Example 88] | 180 pM | 540 pM | – | – |
| O=C(NO)C1(S(=O)(=O)N2CCN(c3ccc(OCCCCF)cc3)CC2)CCOCC1 [Example 89] | 170 pM | 490 pM | – | – |
| CCCCOc1ccc(N2CCN(S(=O)(=O)C3(C(=O)NO)CCOCC3)CC2)c(F)c1 [Example 90] | 390 pM | 1680 pM | – | – |
| CCCCc1ccc(N2CCN(S(=O)(=O)C3(C(=O)NO)CCOCC3)CC2)c(F)c1 [Example 91] | 1640 pM | 1220 pM | – | – |
| CCCCOc1ccc(N2CCN(S(=O)(=O)C3(C(=O)NO)CCN(c4nc5ccccc5s4)CC3)CC2)cc1 [Example 93] | 26000 pM | 6920 pM | – | – |

| Structure (SMILES) | Ki ([1]; value not in parenthesis) | Ki ([2]; value not in parenthesis) | Ki ([1]; value outside parentheses) | Ki ([2]; value outside parentheses) |
| --- | --- | --- | --- | --- |
| O=C(NO)C1(S(=O)(=O)N2CCN(c3ccc(C(F)(F)F)cn3)CC2)CCOCC1 [Example 94] | 820 pM | 660 pM | – | – |
| CCCCCc1ccc(N2CCN(S(=O)(=O)C3(C(=O)NO)CCN(c4ncccn4)CC3)CC2)nc1 [Example 95] | 680 pM | 640 pM | – | – |
| CCCCc1ccc(N2CCN(S(=O)(=O)C3(C(=O)NO)CCN(c4cccnc4)CC3)CC2)nc1 [Example 96] | 440 pM | 200 pM | – | – |
| CCCCOc1ccc(N2CCN(S(=O)(=O)C3(C(=O)NO)CCN(C(=O)OCC(C)(C)C)CC3)CC2)cc1 [Example 97] | 21900 pM | 6690 pM | – | – |
| C#CCOC(=O)N1CCC(C(=O)NO)(S(=O)(=O)N2CCN(c3ccc(OCCCC)cc3)CC2)CC1 [Example 98] | 380 pM | 500 pM | – | – |
| CCCCc1ccc(N2CCN(S(=O)(=O)C3(C(=O)NO)CCN(c4ncccn4)CC3)CC2)nc1 [Example 99] | 300 pM | 170 pM | – | – |
| CCCCOc1ccc(N2CCN(S(=O)(=O)C3(C(=O)NO)CCOCC3)CC2)nc1 [Example 100] | 60 pM | 130 pM | – | – |
| CCCCOc1ccc(N2CCN(S(=O)(=O)C3(C(=O)NO)CCN(c4ccc(Cl)c(Cl)c4)CC3)CC2)cc1 [Example 250] | 18400 pM | 29900 pM | – | – |
| CCCCOc1ccc(N2CCN(S(=O)(=O)C3(C(=O)NO)CCN(c4ccc(Cl)cc4)CC3)CC2)cc1 [Example 251] | – | – | 12900 pM | 22500 pM |
| CCCCOc1ccc(N2CCN(S(=O)(=O)C3(C(=O)NO)CCN(Cc4ccco4)CC3)CC2)cc1 [Example 252] | – | – | 373 pM | 1380 pM |
| CCCCOc1ccc(N2CCN(S(=O)(=O)C3(C(=O)NO)CCN(C(N)=O)CC3)CC2)cc1 [Example 253] | – | – | 357 pM | 761 pM |
| CCCCOc1ccc(N2CCN(S(=O)(=O)C3(C(=O)NO)CCN(C(=O)N(C)C)CC3)CC2)cc1 [Example 254] | – | – | 100 pM | 309 pM |
| CCCCOc1ccc(N2CCN(S(=O)(=O)C3(C(=O)NO)CCN(C(=O)c4ccccc4)CC3)CC2)cc1 [Example 255] | – | – | 390 pM | 858 pM |
| CCCCOc1ccc(N2CCN(S(=O)(=O)C3(C(=O)NO)CCN(c4ccc(C(F)(F)F)cn4)CC3)CC2)cc1 [Example 257] | – | – | 12900 pM | 9640 pM |
| O=C(NO)C1(S(=O)(=O)N2CCN(c3ccc(SC(F)(F)F)cc3)CC2)CCS(=O)(=O)CC1 [Example 258] | – | – | 30500 pM | 4060 pM |
| CCCCOc1ccc(N2CCN(S(=O)(=O)C3(C(=O)NO)CCN(C(=O)c4ccncc4)CC3)CC2)cc1 [Example 259] | – | – | 359 pM | 468 pM |
| CCCCOc1ccc(N2CCN(S(=O)(=O)C3(C(=O)NO)CCN(C(=O)C4CC4)CC3)CC2)cc1 [Example 260] | – | – | 301 pM | 467 pM |
| CCc1ccc(N2CCN(S(=O)(=O)C3(C(=O)NO)CCCC3)CC2)nc1 [Example 261] | – | – | 458 pM | 276 pM |
| CCc1ccc(N2CCN(S(=O)(=O)C3(C(=O)NO)CCCCC3)CC2)nc1 [Example 263] | – | – | 262 pM | 188 pM |

| Structure (SMILES) | Ki ([1]; value not in parenthesis) | Ki ([2]; value not in parenthesis) | Ki ([1]; value outside parentheses) | Ki ([2]; value outside parentheses) |
| --- | --- | --- | --- | --- |
| CCCCOc1ccc(N2CCN(S(=O)(=O)C3(C(=O)NO)CCN(c4ccccc4)CC3)CC2)cc1 [Example 264] | – | – | 48 pM | 8230 pM |
| CCCCOc1ccc(N2CCN(S(=O)(=O)C3(C(=O)NO)CCN(C(=O)CC(F)(F)F)CC3)CC2)cc1 [Example 265] | – | – | 637 pM | 878 pM |
| CCCCOc1ccc(N2CCN(S(=O)(=O)C3(C(=O)NO)CCN(C(=O)c4cccnc4)CC3)CC2)cc1 [Example 266] | – | – | 308 pM | 422 pM |
| CCCCOc1ccc(N2CCN(S(=O)(=O)C3(C(=O)NO)CCN(C(=O)C(C)(C)C)CC3)CC2)cc1 [Example 267] | – | – | 640 pM | 836 pM |
| CCCCOc1ccc(N2CCN(S(=O)(=O)C3(C(=O)NO)CCN(C(=O)COC)CC3)CC2)cc1 [Example 268] | – | – | 311 pM | 564 pM |
| CCCCOc1ccc(N2CCN(S(=O)(=O)C3(C(=O)NO)CCN(C=O)CC3)CC2)cc1 [Example 269] | – | – | 250 pM | 436 pM |
| CCCCc1ccc(N2CCN(S(=O)(=O)C3(C(=O)NO)CCN(CCOC)CC3)CC2)nc1 [Example 270] | – | – | 339 pM | 176 pM |
| CCCCOc1ccc(N2CCN(S(=O)(=O)C3(C(=O)NO)CCN(C(=O)CO)CC3)CC2)cc1 [Example 271] | – | – | 452 pM | 668 pM |
| CCCCCc1ccc(N2CCN(S(=O)(=O)C3(C(=O)NO)CCN(C4CC4)CC3)CC2)cc1 [Example 272] | – | – | 330 pM | 662 pM |
| CCCCOc1ccc(N2CCN(S(=O)(=O)C3(C(=O)NO)CCN(C(=O)C(C)C)CC3)CC2)cc1 [Example 273] | – | – | 313 pM | 622 pM |
| CCCCOc1ccc(N2CCN(S(=O)(=O)C3(C(=O)NO)CCN(C(=O)CC)CC3)CC2)cc1 [Example 274] | – | – | 484 pM | 826 pM |
| CCCCOc1ccc(N2CCN(S(=O)(=O)C3(C(=O)NO)CCN(c4ccc(C)nn4)CC3)CC2)cc1 [Example 275] | – | – | 216 pM | 381 pM |
| CCCCOc1ccc(N2CCN(S(=O)(=O)C3(C(=O)NO)CCNCC3)CC2)cc1 [Example 276] | – | – | 2490 pM | 5700 pM |
| CCCCOc1ccc(N2CCN(S(=O)(=O)C3(C(=O)NO)CCN(C(=O)c4ccccn4)CC3)CC2)cc1 [Example 277] | – | – | 230 pM | 420 pM |
| CCCCOc1ccc(N2CCN(S(=O)(=O)C3(C(=O)NO)CCN(C(=O)CCCC)CC3)CC2)cc1 [Example 278] | – | – | 490 pM | 810 pM |
| CC(C)CCOc1ccc(N2CCN(S(=O)(=O)C3(C(=O)NO)CCOCC3)CC2)cc1 [Example 279] | – | – | 320 pM | 1110 pM |
| CCCCOc1ccc(N2CCN(S(=O)(=O)C3(C(=O)NO)CCN(C)CC3)CC2)cc1 [Example 280] | – | – | 1020 pM | 2760 pM |
| CCCCOc1ccc(N2CCN(S(=O)(=O)C3(C(=O)NO)CCN(c4ccc(Cl)nn4)CC3)CC2)cc1 [Example 281] | – | – | 442 pM | 769 pM |
